This is an account of results in patent publication US20100041669A1, “4-(HETEROCYCLYL)ALKYL-N-(ARYLSULFONYL)INDOLE COMPOUNDS AND THEIR USE AS 5-HT6 LIGANDS” (priority 2007, published 2010).

Counter-ions that a name gives are not always drawn.

T1 sequence (P50406 whole entry): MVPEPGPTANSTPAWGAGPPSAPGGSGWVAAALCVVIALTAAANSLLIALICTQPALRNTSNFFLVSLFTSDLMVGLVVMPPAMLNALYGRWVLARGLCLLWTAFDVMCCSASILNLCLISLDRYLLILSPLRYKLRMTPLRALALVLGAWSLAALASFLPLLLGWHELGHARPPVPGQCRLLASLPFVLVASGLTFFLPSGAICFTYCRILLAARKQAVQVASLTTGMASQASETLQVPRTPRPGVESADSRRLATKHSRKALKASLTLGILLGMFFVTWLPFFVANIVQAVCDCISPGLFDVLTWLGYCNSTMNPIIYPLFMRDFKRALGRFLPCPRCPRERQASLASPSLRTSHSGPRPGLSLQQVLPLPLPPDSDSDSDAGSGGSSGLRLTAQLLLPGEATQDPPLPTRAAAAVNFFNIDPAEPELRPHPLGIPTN

System in the first test: not given
Assay: not given
To be noted: Pouzet et al. 2002; cited from earlier work.
For the compound `COc1ccc(NS(=O)(=O)c2sc3ccc(Cl)cc3c2C)cc1N1CCNCC1` [SB-271046, 5-Chloro-N-(4-methoxy-3-piperazin-1-ylphenyl)-3-methyl-2-benzothiophenesulfonamide], the “activity in animal tests related to positive or negative symptoms of schizophrenia” value was “inactive”.

A further test has as its target T1, human 5-HT6 receptor (Homo sapiens, UniProt P50406).
T1 construct: expressed in transfected cells; host or cells: HEK293
Put plainly: Binding assay for human 5-HT6 receptor ([3H]LSD radioligand). To be noted: human recombinant receptor, [3H]LSD 1.5 nM, 60 minutes at 37° C.; read-out: Radiogland binding data at 5-HT6 R (h) Ki.
Protocol: Binding Assay for Human 5-HT6 Receptor
Receptor source: Human recombinant expressed in FEK293 cells
Radioligand: [^3H]LSD (60-80 Ci/mmol)
Final ligand concentration —[1.5 nM]
Non-specific determinant: Methiothepin mesylate —[0.1 μM]
Reference compound: Methiothepin mesylate
Positive control: Methiothepin mesylate
Reactions were carried out in 50 μM TRIS-HCl (pH 7.4) containing 10 μM MgCl2, 0.5 mM EDTA for 60 minutes at 37° C. The reaction was terminated by rapid vacuum filtration onto glass fiber filters. Radioactivity trapped onto the filters was determined and compared to control values in order to ascertain any interactions of test compound(s) with the cloned serotonin 5-HT6 binding site.
Usually Ki stands for the equilibrium dissociation constant of an inhibitor or competing ligand from its target. `CN1CCN(Cc2cccc3c2ccn3S(=O)(=O)c2cccc3ccccc23)CC1` [Compound 39, 1-Naphthylsulfonyl-4-(4-methylpiperazin-1-ylmethyl)-1H-indole]: the Ki turned out to be 4.82 nM.

On to `CN1CCN(Cc2cccc3c2c(Cl)cn3S(=O)(=O)c2cccc3ccccc23)CC1` [Compound 34, 3-Chloro-1-(1-naphthylsulfonyl)-4-(4-methylpiperazin-1-ylmethyl)-1H-indole], for which the Ki worked out at 165 nM.

In the case of `CN1CCN(Cc2cccc3c2c(Br)cn3S(=O)(=O)c2ccccc2)CC1` [Compound 18, 1-Benzenesulfonyl-3-bromo-4-(4-methylpiperazin-1-ylmethyl)-1H-indole], the Ki is 30.2 nM.

With `CN1CCN(Cc2cccc3c2c(Br)cn3S(=O)(=O)c2ccc(F)cc2)CC1` [Compound 22, 3-Bromo-1-(4-fluorobenzenesulfonyl)-4-(4-methylpiperazin-1-ylmethyl)-1H-indole], the Ki was 122 nM.

As for `CN1CCN(Cc2cccc3c2ccn3S(=O)(=O)c2cccc(Cl)c2)CC1` [Compound 41, 1-(3-chlorobenzenesulfonyl)-4-(4-methylpiperazin-1-ylmethyl)-1H-indole], the Ki came out at 13.1 nM.

`CN1CCN(Cc2cccc3c2ccn3S(=O)(=O)c2ccccc2)CC1` [Compound 1, 1-Benzenesulfonyl-4-(4-methylpiperazin-1-ylmethyl)-1H-indole]: the Ki was 6.51 nM.

`CN1CCN(Cc2cccc3c2c(Cl)cn3S(=O)(=O)c2ccccc2Br)CC1` [Compound 30, 3-Chloro-1-(2-bromobenzenesulfonyl)-4-(4-methylpiperazin-1-ylmethyl)-1H-indole]: the Ki turned out to be 90.7 nM.

Turning to `Cc1ccc(S(=O)(=O)n2ccc3c(CN4CCN(C)CC4)cccc32)cc1` [Compound 5, 1-(4-Methylbenzenesulfonyl)-4-(4-methylpiperazin-1-ylmethyl)-1H-indole], the Ki is 7.92 nM.

`CN1CCN(Cc2cccc3c2ccn3S(=O)(=O)c2ccc(Br)cc2)CC1` [Compound 2, 1-(4-Bromobenzenesulfonyl)-4-(4-methylpiperazin-1-ylmethyl)-1H-indole]: the Ki came out at 23.4 nM.

On to `CN1CCN(Cc2cccc3c2c(Cl)cn3S(=O)(=O)c2cccc(Cl)c2)CC1` [Compound 33, 3-Chloro-1-(3-chlorobenzenesulfonyl)-4-(4-methylpiperazin-1-ylmethyl)-1H-indole], for which the Ki is 27.1 nM.

Consider `COc1ccc(S(=O)(=O)n2ccc3c(CN4CCN(C)CC4)cccc32)cc1` [Compound 8, 1-(4-Methoxybenzenesulfonyl)-4-(4-methylpiperazin-1-ylmethyl)-1H-indole], for which the Ki is 29.1 nM.

For `CC(C)c1ccc(S(=O)(=O)n2ccc3c(CN4CCN(C)CC4)cccc32)cc1` [Compound 4, 1-[4-(1-Methylethyl)benzenesulfonyl]-4-(4-methylpiperazin-1-ylmethyl)-1H-indole], the Ki was 11.1 nM.

Turning to `Cc1ccc(S(=O)(=O)n2cc(Cl)c3c(CN4CCN(C)CC4)cccc32)cc1` [Compound 29, 3-Chloro-1-(4-methylbenzenesulfonyl)-4-(4-methylpiperazin-1-ylmethyl)-1H-indole], the Ki came out at 222 nM.

Turning to `Cc1ccc(S(=O)(=O)n2ccc3c(CN4CCNCC4)cccc32)cc1` [Compound 38, 1-(4-Methylbenzenesulfonyl-4-(piperazin-1-ylmethyl)-1H-indoledihydrochloride], the Ki was 10.7 nM.

In the case of `CN1CCN(Cc2cccc3c2c(Br)cn3S(=O)(=O)c2cccc3ccccc23)CC1` [Compound 25, 3-Bromo-1-(1-naphthylsulfonyl)-4-(4-methylpiperazin-1-ylmethyl)-1H-indole], the Ki came out at 97.6 nM.

Consider `COc1ccc(S(=O)(=O)n2ccc3c(CN4CCN(C)CC4)cccc32)c(Br)c1` [Compound 3, 1-(2-Bromo-4-methoxybenzenesulfonyl)-4-(4-methylpiperazin-1-ylmethyl)-1H-indole], for which the Ki is 8.58 nM.

Consider `CN1CCN(Cc2cccc3c2c(Br)cn3S(=O)(=O)c2cccc(Cl)c2)CC1` [Compound 24, 3-Bromo-1-(3-chlorobenzenesulfonyl)-4-(4-methylpiperazin-1-ylmethyl)-1H-indole], for which the Ki turned out to be 75.3 nM.

On to `O=S(=O)(c1ccccc1Br)n1ccc2c(CN3CCNCC3)cccc21` [Compound 36, 1-(2-Bromobenzenesulfonyl)-4-(piperazin-1-ylmethyl)-1H-indole dihydrochloride], for which the Ki stood at 0.94 nM.

Turning to `CC(C)c1ccc(S(=O)(=O)n2cc(Cl)c3c(CN4CCN(C)CC4)cccc32)cc1` [Compound 28, 3-Chloro-1-[4-(1-methylethyl)benzenesulfonyl]-4-(4-methylpiperazin-1-ylmethyl)-1H-indole], the inhibitory constant (Ki) is 99.7 nM.

In the case of `CN1CCN(Cc2cccc3c2ccn3S(=O)(=O)c2ccc(F)cc2)CC1` [Compound 7, 1-(4-Fluorobenzenesulfonyl)-4-(4-methylpiperazin-1-ylmethyl)-1H-indole], the Ki came to 9.89 nM.

Turning to `CN1CCN(Cc2cccc3c2c(Cl)cn3S(=O)(=O)c2ccccc2)CC1` [Compound 27, 3-Chloro-1-benzenesulfonyl-4-(4-methylpiperazin-1-ylmethyl)-1H-indole], the Ki amounted to 53.6 nM.

On to `O=S(=O)(c1ccccc1)n1ccc2c(CN3CCNCC3)cccc21` [Compound 37, 1-Benzenesulfonyl-4-(piperazin-1-ylmethyl)-1H-indole dihydrochloride], for which the Ki turned out to be 7.84 nM.

As to `CC(C)c1ccc(S(=O)(=O)n2cc(Br)c3c(CN4CCN(C)CC4)cccc32)cc1` [Compound 20, 3-Bromo-1-[4-(1-Methylethyl)benzenesulfonyl]-4-(4-methylpiperazin-1-ylmethyl)-1H-indole], the Ki was 278 nM.

In the case of `CN1CCN(Cc2cccc3c2ccn3S(=O)(=O)c2ccccc2Br)CC1` [Compound 6, 1-(2-Bromobenzenesulfonyl)-4-(4-methylpiperazin-1-ylmethyl)-1H-indole], the Ki turned out to be 1.43 nM.

A further test deals with 5-HT6 receptor.
Assay: not given
The conditions noted are these: literature; cited from earlier work.
With `CN(C)CCC=C1c2ccccc2CCc2ccccc21` [amitriptyline], the “affinity for the 5-HT6 receptor” value is reported as “high affinity”.

As for `CN1CCN2c3ccccc3Cc3ccccc3C2C1` (stereo not drawn) [mianserin], the “affinity for the 5-HT6 receptor” value is recorded as “high affinity”.
